Laboratory results from ChEMBL document CHEMBL1201862, “PubChem BioAssay data set” (2004).
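Assay format: 96-well plates, 48-hour exposure. GI50: concentration for 50% inhibition of growth.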 The source made the active and inactive calls. Rule as the data show it: active = GI50 up to about 1.1 µM and inactive = higher.

Key:
Assay in all cases: growth of human tumour cells (NCI), 48 h
[1] = test system: ACHN
[2] = test system: CAKI-1
[3] = test system: CCRF-CEM
[4] = test system: COLO 205
[5] = test system: DU-145
[6] = test system: HL-60
[7] = test system: HOP-62
[8] = test system: HT-29
[9] = test system: IGROV-1
[10] = test system: MOLT-4
[11] = test system: Malme-3M
[12] = test system: NCI-H522
[13] = test system: OVCAR-3
[14] = test system: OVCAR-4
[15] = test system: OVCAR-8
[16] = test system: SF-295
[17] = test system: SK-MEL-2
[18] = test system: SR
[19] = test system: SK-MEL-5
[20] = test system: T47D

| SMILES | GI50 [1] | GI50 [2] | GI50 [3] | GI50 [4] | GI50 [5] | GI50 [6] | GI50 [7] | GI50 [8] | GI50 [9] | GI50 [10] | GI50 [11] | GI50 [12] | GI50 [13] | GI50 [14] | GI50 [15] | GI50 [16] | GI50 [17] | GI50 [18] | GI50 [19] | GI50 [20] |
| --- | --- | --- | --- | --- | --- | --- | --- | --- | --- | --- | --- | --- | --- | --- | --- | --- | --- | --- | --- | --- |
| Cc1cccc2nc3n(c12)C(=O)c1ccccc1-3 | > 100 µM (inactive) | > 100 µM (inactive) | > 100 µM (inactive) | > 100 µM (inactive) | 44.4 µM (inactive) | > 100 µM (inactive) | > 100 µM (inactive) | > 100 µM (inactive) | > 100 µM (inactive) | > 100 µM (inactive) | > 100 µM (inactive) | > 100 µM (inactive) | > 100 µM (inactive) | > 100 µM (inactive) | > 100 µM (inactive) | 49.9 µM (inactive) | > 100 µM (inactive) | > 100 µM (inactive) | – | – |
| CC(=O)CC(=O)NC=O | > 100 µM (inactive) | > 100 µM (inactive) | > 100 µM (inactive) | > 100 µM (inactive) | – | > 100 µM (inactive) | > 100 µM (inactive) | > 100 µM (inactive) | > 100 µM (inactive) | > 100 µM (inactive) | > 100 µM (inactive) | > 100 µM (inactive) | > 100 µM (inactive) | > 100 µM (inactive) | > 100 µM (inactive) | > 100 µM (inactive) | > 100 µM (inactive) | > 100 µM (inactive) | > 100 µM (inactive) | – |
| C/C(=C\c1ccccc1)C(=O)c1c(C)cc(C)cc1C | > 100 µM (inactive) | > 100 µM (inactive) | > 100 µM (inactive) | > 100 µM (inactive) | – | > 100 µM (inactive) | > 100 µM (inactive) | > 100 µM (inactive) | > 100 µM (inactive) | > 100 µM (inactive) | > 100 µM (inactive) | > 100 µM (inactive) | > 100 µM (inactive) | > 100 µM (inactive) | > 100 µM (inactive) | > 100 µM (inactive) | > 100 µM (inactive) | > 100 µM (inactive) | > 100 µM (inactive) | – |
| CC[C@@H]1OC2(C)CC(S(=O)(=O)c3ccccc3)CC1O2 (stereo not given in full) | > 100 µM (inactive) | < 0.01 µM (active) | > 100 µM (inactive) | > 100 µM (inactive) | – | > 100 µM (inactive) | > 100 µM (inactive) | > 100 µM (inactive) | > 100 µM (inactive) | > 100 µM (inactive) | > 100 µM (inactive) | > 100 µM (inactive) | > 100 µM (inactive) | > 100 µM (inactive) | > 100 µM (inactive) | > 100 µM (inactive) | > 100 µM (inactive) | > 100 µM (inactive) | > 100 µM (inactive) | – |
| COCC(C)(C)/N=C/N1Cc2cc3ccccc3nc2C1 | > 100 µM (inactive) | > 100 µM (inactive) | > 100 µM (inactive) | > 100 µM (inactive) | – | > 100 µM (inactive) | 93.8 µM (inactive) | > 100 µM (inactive) | > 100 µM (inactive) | > 100 µM (inactive) | > 100 µM (inactive) | > 100 µM (inactive) | 75.5 µM (inactive) | > 100 µM (inactive) | > 100 µM (inactive) | > 100 µM (inactive) | > 100 µM (inactive) | > 100 µM (inactive) | > 100 µM (inactive) | – |
| C/C(=N/NC(=S)N1CCCC1)c1cccc(/C(C)=N\NC(=S)N2CCCC2)n1 | 0.791 µM (active) | 1.28 µM (inactive) | 0.0667 µM (active) | 0.785 µM (active) | 2.61 µM (inactive) | 0.453 µM (active) | 0.378 µM (active) | 0.0318 µM (active) | 0.881 µM (active) | 0.0412 µM (active) | 1.84 µM (inactive) | 1.8 µM (inactive) | 0.0973 µM (active) | – | 1.11 µM (active) | 0.548 µM (active) | 1.7 µM (inactive) | 0.0944 µM (active) | 1.36 µM (inactive) | – |
| CN(C)c1ccc(/C=C(/NC(=O)c2ccccc2)c2nc3cc(Cl)ccc3[nH]2)cc1 | 48.9 µM (inactive) | 61.7 µM (inactive) | 22.4 µM (inactive) | 20.7 µM (inactive) | – | 16 µM (inactive) | > 100 µM (inactive) | 28.6 µM (inactive) | > 100 µM (inactive) | 20.9 µM (inactive) | 23.1 µM (inactive) | 22 µM (inactive) | 0.0123 µM (active) | 18.6 µM (inactive) | 35.3 µM (inactive) | 28 µM (inactive) | 37.1 µM (inactive) | 30.3 µM (inactive) | 21.6 µM (inactive) | – |
| Clc1c(C(Cl)(Cl)Cl)nsc1N1CCCCC1 | 29.8 µM (inactive) | 19.4 µM (inactive) | 16.5 µM (inactive) | 16.5 µM (inactive) | 28.4 µM (inactive) | 16.6 µM (inactive) | 23 µM (inactive) | 16 µM (inactive) | 36 µM (inactive) | 15.2 µM (inactive) | 13.5 µM (inactive) | – | 20.8 µM (inactive) | 25.6 µM (inactive) | 27.4 µM (inactive) | 22.3 µM (inactive) | – | 16.1 µM (inactive) | 16 µM (inactive) | – |
| Cc1cc2c3c(ccc4[nH]cc(c43)CN2c2ccc(NS(C)(=O)=O)cc2)n1 | 70.3 µM (inactive) | 25.9 µM (inactive) | 8.41 µM (inactive) | > 100 µM (inactive) | 49.1 µM (inactive) | 28.1 µM (inactive) | 19.6 µM (inactive) | > 100 µM (inactive) | 48.4 µM (inactive) | 3.02 µM (inactive) | – | 5.75 µM (inactive) | 21.2 µM (inactive) | > 100 µM (inactive) | 29 µM (inactive) | 51.9 µM (inactive) | 37.7 µM (inactive) | – | > 100 µM (inactive) | – |
| CC(C)C(C/C=C1\CC(CO)(COC(=O)c2ccccc2)OC1=O)C(C)C (stereo not given) | 16.7 µM (inactive) | 18.7 µM (inactive) | 12.1 µM (inactive) | 11.5 µM (inactive) | – | – | 13.7 µM (inactive) | 19.1 µM (inactive) | 20.7 µM (inactive) | 18.2 µM (inactive) | 16.8 µM (inactive) | 21.6 µM (inactive) | 21.2 µM (inactive) | 18.8 µM (inactive) | 19.2 µM (inactive) | 14.5 µM (inactive) | > 100 µM (inactive) | 32.2 µM (inactive) | 10.4 µM (inactive) | 93.8 µM (inactive) |
| CC(=O)C1C(=O)C(=O)N(c2ccc([N+](=O)[O-])cc2)C1=O (stereo not given) | > 100 µM (inactive) | > 100 µM (inactive) | > 100 µM (inactive) | > 100 µM (inactive) | > 100 µM (inactive) | > 100 µM (inactive) | > 100 µM (inactive) | > 100 µM (inactive) | > 100 µM (inactive) | > 100 µM (inactive) | – | > 100 µM (inactive) | > 100 µM (inactive) | > 100 µM (inactive) | > 100 µM (inactive) | > 100 µM (inactive) | 66.2 µM (inactive) | – | > 100 µM (inactive) | – |
